Assay results as given in ChEMBL document CHEMBL5505954, “Design, synthesis and biological evaluation of the positional isomers of the galactose conjugates able to target hepatocellular carcinoma cells via ASGPR-mediated cellular uptake and cytotoxicity” (Eur J Med Chem, 2024).
Activity calls are given as the source filed them. No cut-off for these calls is given here.

How the values were obtained:
HepG2 [1] = experiment: Competitive binding affinity to ASGPR in human HepG2 cells assessed as reduction in drug uptake pretreated for 0.5 hrs followed by 2-(-5-(-3,3-dimethyl-1-(6-oxo-6-((5-(((2R,3R,4S,5R)-3,4,5,6-tetrahydroxytetrahydro-2H-pyran-2-yl)methoxy)pentyl)amino)hexyl)-5-sulfoindolin-2-ylidene)penta-1,3-dien-1-yl …; format: cell-based; conditions: time 4.5 hrs
[2] = Cytotoxicity against human HL7702 cells assessed as inhibition of cell growth incubated for 48 hrs by CCK-8 assay; format: toxicity, cell-based; conditions: HL7702 (L02) cells
Huh-7 = experiment: Cytotoxicity against human Huh-7 cells assessed as inhibition of cell growth incubated for 48 hrs by CCK-8 assay; format: functional, cell-based; conditions: Huh-7, 48 h
DU-145 = experiment: Cytotoxicity against human DU-145 cells assessed as inhibition of cell growth incubated for 48 hrs by CCK-8 assay; format: functional, cell-based; conditions: DU-145, 48 h
A549 = experiment: Cytotoxicity against human A549 cells assessed as inhibition of cell growth incubated for 48 hrs by CCK-8 assay; format: functional, cell-based; conditions: A549, 48 h
Bel-7402 = experiment: Cytotoxicity against human Bel-7402 cells assessed as inhibition of cell growth incubated for 48 hrs by CCK-8 assay; format: functional, cell-based; conditions: Bel-7402, 48 h
[3] = Potency index, ratio of test compound IC50 to doxorubicin IC50 for cytotoxicity against human HL7702 cells assessed as inhibition of cell growth incubated for 48 hrs by CCK-8 assay; format: toxicity, cell-based; conditions: HL7702 (L02) cells, read-out: Ratio IC50
HepG2 [4] = experiment: Cytotoxicity against human HepG2 cells harboring siRNA mediated ASGPR knockdown assessed as inhibition of cell growth by measuring increase in IC50 at 0.125 to 16 uM incubated for 48 hrs by CCK-8 assay; format: functional, cell-based; conditions: dose 0.125-16 µM
HepG2 [5] = experiment: Cytotoxicity against human HepG2 cells assessed as inhibition of cell growth incubated for 48 hrs by CCK-8 assay; format: functional, cell-based; conditions: HepG2, 48 h
[6] = Drug uptake in human A549 cells assessed as increase in fluorescence intensity at 25 uM incubated for 4 hrs by DAPI staining based confocal laser scanning microscopic analysis; format: ADME, cell-based; conditions: a549, 4 h
[7] = Drug uptake in human HepG2 cells assessed as increase in fluorescence intensity at 25 uM incubated for 4 hrs by DAPI staining based confocal laser scanning microscopic analysis; format: ADME, cell-based; conditions: hepg2, 4 h
[8] = Drug uptake in human DU-145 cells lacking ASGPR expression assessed as increase in fluorescence intensity at 25 uM incubated for 4 hrs by DAPI staining based confocal laser scanning microscopic analysis; format: ADME, cell-based; conditions: du-145, 4 h
[9] = Drug uptake in human HepG2 cells assessed as increase in fluorescence intensity at 25 uM by DAPI staining based confocal laser scanning microscopic analysis; format: ADME, cell-based; conditions: hepg2, 25 µM, TDE = time-dependent effect, time 0-4 hrs
[10] = Drug uptake in human HepG2 cells assessed as increase in fluorescence intensity at 25 uM at 4 degreeC incubated for 4 hrs by DAPI staining based confocal laser scanning microscopic analysis; format: ADME, cell-based; conditions: hepg2, 4 h
[11] = Drug uptake in human HepG2 cells assessed as increase in fluorescence intensity incubated for 4 hrs by DAPI staining based confocal laser scanning microscopic analysis; format: ADME, cell-based; conditions: hepg2, 4 h, dose 0-50 µM
[12] = Drug uptake in human HepG2 cells overexpressing ASGPR assessed as increase in fluorescence intensity at 25 uM incubated for 4 hrs by DAPI staining based confocal laser scanning microscopic analysis; format: ADME, cell-based; conditions: hepg2, 4 h
[13] = Drug uptake in human Huh-7 cells harboring low ASGPR expression assessed as increase in fluorescence intensity at 25 uM incubated for 4 hrs by DAPI staining based confocal laser scanning microscopic analysis; format: ADME, cell-based; conditions: huh-7, 4 h
[14] = Drug uptake in human A549 cells lacking ASGPR expression assessed as increase in fluorescence intensity at 25 uM incubated for 4 hrs by DAPI staining based confocal laser scanning microscopic analysis; format: ADME, cell-based; conditions: a549, 4 h

With `OC[C@H]1OC(O)[C@H](O)[C@@H](O)[C@H]1O` (stereo not given in full) the Activity (HepG2 [1]) was “Dose-Dependent Effect”.
Work on `COc1cccc2c1C(=O)c1c(O)c3c(c(O)c1C2=O)C[C@@](O)(C(=O)CO)C[C@@H]3O[C@H]1C[C@H](NC(=O)CCCCCO[C@H]2C(O)O[C@H](CO)[C@H](O)[C@@H]2O)[C@H](O)[C@H](C)O1` (stereo not given in full) yielded an IC50 at 48 h [2] of 9.68 µM, an IC50 (Huh-7) of 1.14 µM and an IC50 (DU-145) of 0.88 µM. It also gave an IC50 (A549) of 9.35 µM, an IC50 (Bel-7402) of 3.11 µM and a selectivity ratio at 48 h [3] greater than 12. For the same molecule, the Activity (HepG2 [4]) was “Active” and the IC50 (HepG2 [5]) was 3.44 µM.
Work on `COc1cccc2c1C(=O)c1c(O)c3c(c(O)c1C2=O)C[C@@](O)(C(=O)CO)C[C@@H]3O[C@H]1C[C@H](N)[C@H](O)[C@H](C)O1` [DOXORUBICIN] yielded an IC50 (Huh-7) of 0.12 µM, an IC50 (DU-145) of less than 0.1 µM and an IC50 (Bel-7402) of 0.43 µM.
Work on `COc1cccc2c1C(=O)c1c(O)c3c(c(O)c1C2=O)C[C@@](O)(C(=O)CO)C[C@@H]3O[C@H]1C[C@H](NC(=O)CCCCCOC[C@H]2OC(O)[C@H](O)[C@@H](O)[C@H]2O)[C@H](O)[C@H](C)O1` (stereo not given in full) yielded an IC50 at 48 h [2] greater than 10 µM, an IC50 (Huh-7) greater than 10 µM and an IC50 (DU-145) of 6.74 µM. It also gave an IC50 (A549) greater than 10 µM, an IC50 (Bel-7402) greater than 10 µM and a selectivity ratio at 48 h [3] greater than 12. For the same molecule, the IC50 (HepG2 [5]) was greater than 10 µM.
In the case of `CC(=O)N[C@H]1C(O)O[C@H](CO)[C@H](O)[C@@H]1O` (stereo not given in full), the Activity (HepG2 [1]) is reported as “Dose-Dependent Effect”.
In the case of `CC[N+]1=C(/C=C/C=C/C=C2/N(CCCCCC(=O)NCCCCCO[C@H]3C(O)O[C@H](OO)[C@H](O)[C@@H]3O)c3ccc(S(=O)(=O)O)cc3C2(C)C)C(C)(C)c2cc(S(=O)(=O)[O-])ccc21` (stereo not given in full), the Drug uptake [6] is reported as “Active” and the Drug uptake [7] is reported as “Active”.
In the case of `CC[N+]1=C(/C=C/C=C/C=C2/N(CCCCCC(=O)NCCCCCO[C@H]3[C@@H](O)[C@@H](CO)OC(O)[C@@H]3O)c3ccc(S(=O)(=O)O)cc3C2(C)C)C(C)(C)c2cc(S(=O)(=O)[O-])ccc21` (stereo not given in full), the Drug uptake [6] is reported as “Active” and the Drug uptake [7] is reported as “Active”.
For `CC[N+]1=C(/C=C/C=C/C=C2/N(CCCCCC(=O)NCCCCCOC3O[C@H](CO)[C@H](O)[C@H](O)[C@H]3O)c3ccc(S(=O)(=O)O)cc3C2(C)C)C(C)(C)c2cc(S(=O)(=O)[O-])ccc21` (stereo not given in full), the Drug uptake [6] was “Active” and the Drug uptake [7] was “Active”.
For `CC[N+]1=C(/C=C/C=C/C=C2/N(CCCCCC(=O)NCCCCCO[C@@H]3[C@H](O)[C@@H](O)C(O)O[C@@H]3CO)c3ccc(S(=O)(=O)O)cc3C2(C)C)C(C)(C)c2cc(S(=O)(=O)[O-])ccc21` (stereo not given in full), the Drug uptake [6] was “Active” and the Drug uptake [7] was “Active”.
For `COc1cccc2c1C(=O)c1c(O)c3c(c(O)c1C2=O)C[C@@](O)(C(=O)CO)C[C@@H]3O[C@H]1C[C@H](NC(=O)CCCCCO[C@@H]2O[C@H](CO)[C@H](O)[C@H](O)[C@H]2O)[C@H](O)[C@H](C)O1`, the IC50 at 48 h [2] was greater than 10 µM, the IC50 (Huh-7) was 1.29 µM and the IC50 (DU-145) was 2.67 µM. It also gave an IC50 (A549) greater than 10 µM, an IC50 (Bel-7402) of 4.67 µM and a selectivity ratio at 48 h [3] greater than 12. For the same molecule, the Activity (HepG2 [4]) was “Active” and the IC50 (HepG2 [5]) was 6.71 µM.
With `CC[N+]1=C(/C=C/C=C/C=C2/N(CCCCCC(=O)NCCCCCOC[C@H]3OC(O)[C@H](O)[C@@H](O)[C@H]3O)c3ccc(S(=O)(=O)O)cc3C2(C)C)C(C)(C)c2cc(S(=O)(=O)[O-])ccc21` (stereo not given in full) the Drug uptake [6] was “Active”, the Drug uptake [8] was “Not Active” and the Drug uptake [9] was “Tde”. For the same molecule, the Drug uptake [10] was “Not Active”, the Drug uptake [11] was “Dose-Dependent Effect” and the Drug uptake [12] was “Active”. For the same molecule, the Drug uptake [13] was “Not Active”, the Drug uptake [14] was “Not Active” and the Drug uptake [7] was “Active”.
